Assay in all cases: SelectScreen Kinase Profiling, single point inhibition and IC50 for off-target kinases
Common to all, as to type: biochemical

Experiment [1] has as its target T1, off-target kinases (Homo sapiens, UniProt O00141).
T1 sequence (O00141 1-431): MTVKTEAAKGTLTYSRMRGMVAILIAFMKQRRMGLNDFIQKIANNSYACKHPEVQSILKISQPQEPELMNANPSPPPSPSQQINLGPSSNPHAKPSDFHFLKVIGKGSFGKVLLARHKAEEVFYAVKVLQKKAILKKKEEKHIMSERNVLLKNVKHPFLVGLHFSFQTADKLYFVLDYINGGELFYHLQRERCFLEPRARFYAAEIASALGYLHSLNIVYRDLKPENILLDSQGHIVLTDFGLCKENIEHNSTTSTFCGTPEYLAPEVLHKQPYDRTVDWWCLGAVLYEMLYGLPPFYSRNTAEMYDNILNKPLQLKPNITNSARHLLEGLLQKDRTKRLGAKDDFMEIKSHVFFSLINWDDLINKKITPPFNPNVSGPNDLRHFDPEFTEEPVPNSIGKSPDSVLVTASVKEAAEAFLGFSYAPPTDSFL
The following applies: SGK (SGK1), ZLYTE, ATP Km app.

Experiment [2] has as its target T2, off-target kinases (Homo sapiens, UniProt O14757).
T2 sequence (O14757 1-476): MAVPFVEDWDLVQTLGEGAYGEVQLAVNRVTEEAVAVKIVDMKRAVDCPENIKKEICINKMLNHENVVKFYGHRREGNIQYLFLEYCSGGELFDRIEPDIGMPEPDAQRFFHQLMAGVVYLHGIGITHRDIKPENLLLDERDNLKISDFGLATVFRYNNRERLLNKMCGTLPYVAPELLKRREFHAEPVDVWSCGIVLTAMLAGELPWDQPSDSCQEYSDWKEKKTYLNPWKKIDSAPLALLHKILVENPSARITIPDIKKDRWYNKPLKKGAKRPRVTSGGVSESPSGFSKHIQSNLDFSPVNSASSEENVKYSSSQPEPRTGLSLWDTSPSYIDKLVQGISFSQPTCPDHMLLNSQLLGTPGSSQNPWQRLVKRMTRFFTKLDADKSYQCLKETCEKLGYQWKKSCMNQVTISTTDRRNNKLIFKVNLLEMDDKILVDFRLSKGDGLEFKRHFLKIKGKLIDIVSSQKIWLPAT
The following applies: CHEK1 (CHK1), ATP Km app, ZLYTE.

Experiment [3] addresses off-target kinases (Homo sapiens, UniProt P45984). The following applies: MAPK9 (JNK2).
The target in experiment [4] is off-target kinases (Homo sapiens, UniProt Q9NYA1). The following applies: SPHK1, Adapta, ATP Km app.
Chain of off-target kinases (Homo sapiens, UniProt Q9NYA1) (Q9NYA1 whole entry): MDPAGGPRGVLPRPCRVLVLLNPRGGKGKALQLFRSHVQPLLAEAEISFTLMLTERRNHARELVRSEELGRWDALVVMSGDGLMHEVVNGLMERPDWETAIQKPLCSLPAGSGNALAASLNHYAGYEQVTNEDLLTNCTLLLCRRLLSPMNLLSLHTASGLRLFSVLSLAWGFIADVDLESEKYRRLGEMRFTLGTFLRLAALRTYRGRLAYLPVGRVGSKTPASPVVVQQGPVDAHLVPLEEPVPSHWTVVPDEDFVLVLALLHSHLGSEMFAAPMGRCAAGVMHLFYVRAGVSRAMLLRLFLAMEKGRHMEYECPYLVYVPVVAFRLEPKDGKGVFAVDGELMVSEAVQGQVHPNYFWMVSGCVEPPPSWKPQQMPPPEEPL

Where two headings read alike, the source gives them in different places.

Chain of off-target kinases (Homo sapiens, UniProt P45984) (P45984 whole entry): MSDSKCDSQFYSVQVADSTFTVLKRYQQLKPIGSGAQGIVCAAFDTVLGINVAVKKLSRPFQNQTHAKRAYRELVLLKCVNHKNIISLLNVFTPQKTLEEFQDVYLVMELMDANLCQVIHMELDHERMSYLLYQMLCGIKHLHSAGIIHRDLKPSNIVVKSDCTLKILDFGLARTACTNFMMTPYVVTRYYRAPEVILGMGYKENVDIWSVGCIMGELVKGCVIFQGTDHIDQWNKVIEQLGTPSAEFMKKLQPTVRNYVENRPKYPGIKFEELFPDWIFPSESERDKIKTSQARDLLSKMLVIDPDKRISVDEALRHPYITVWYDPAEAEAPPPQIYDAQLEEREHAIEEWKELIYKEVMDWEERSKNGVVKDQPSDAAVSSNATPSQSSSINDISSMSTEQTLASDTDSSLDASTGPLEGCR

What is called inhibition is the change of the read-out against control, counted positive when it falls. In the case of `N#Cc1cc(-c2ncnc(Nc3ccc(N4CCN(C5COC5)CC4)cc3)n2)ccc1OC1CCOCC1` [Compound 1, 5-(4-((4-(4-(oxetan-3-yl)piperazin-1-yl)phenyl)amino)-1,3,5-triazin-2-yl)-2-((tetrahydro-2H-pyran-4-yl)oxy)benzonitrile], the inhibition on off-target kinases [1] (read-out: % Inhibition 1) is 28%; on off-target kinases [1] (read-out: % Inhibition 2), 26%; on off-target kinases [1] (read-out: % Inhibition Avg) it was 27%; on off-target kinases [2] (read-out: % Inhibition 1) it was 78%; on off-target kinases [2] (read-out: % Inhibition 2), 78%; on off-target kinases [2] (read-out: % Inhibition Avg), 78%. Further, the inhibition at off-target kinases [3] (LanthaScreen Binding, read-out: % Inhibition 1) came out at 12%; on off-target kinases [3] (LanthaScreen Binding, read-out: % Inhibition 2), 14%; on off-target kinases [3] (LanthaScreen Binding, read-out: % Inhibition Avg), 13%; at off-target kinases [3] (ZLYTE, ATP 100, read-out: % Inhibition 1), 12%; at off-target kinases [3] (ZLYTE, ATP 100, read-out: % Inhibition 2), 21%; on off-target kinases [3] (ZLYTE, ATP 100, read-out: % Inhibition Avg), 16%. Moreover, the inhibition at off-target kinases [4] (read-out: % Inhibition 1) was 10%; at off-target kinases [4] (read-out: % Inhibition 2), -9%; on off-target kinases [4] (read-out: % Inhibition Avg), 0%.

For the origin of these results see US11572590B2, “Methods for evaluating tumor cell spheroids using 3D microfluidic cell culture device” (Dana-Farber Cancer Institute, Inc., priority 2017, dated 2023).
